Experimental data reported in patent US10800792B2, “Inhibitors of Bruton's tyrosine kinase and method of their use” (JANSSEN PHARMACEUTICA NV, priority 2015, dated 2020).

Target: unphosphorylated-BTK kinase domain (UP-BTK), GST-tagged human BTK (389-659aa) (Homo sapiens (Human), UniProt Q06187)
Assay: BTK kinase Lanthascreen binding assay
Details: Lanthascreen tracer competition, 60 minutes incubation; pIC50 = negative log of the IC50 in molar
In short: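 A fluorescent tracer is bound to unphosphorylated BTK; test compound is added to compete it off; the Lanthascreen signal is read and IC50 is fitted, then reported as its negative log in molar.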

Sequence of unphosphorylated-BTK kinase domain (UP-BTK), GST-tagged human BTK (389-659aa) (Q06187 389-659): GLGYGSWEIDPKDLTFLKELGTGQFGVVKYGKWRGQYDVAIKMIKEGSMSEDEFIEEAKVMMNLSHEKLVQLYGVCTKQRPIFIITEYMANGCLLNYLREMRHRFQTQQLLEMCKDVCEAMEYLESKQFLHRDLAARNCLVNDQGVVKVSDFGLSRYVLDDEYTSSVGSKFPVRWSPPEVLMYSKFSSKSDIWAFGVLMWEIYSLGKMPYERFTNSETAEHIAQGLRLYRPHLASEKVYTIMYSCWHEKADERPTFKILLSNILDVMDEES

Row | SMILES | BTK_I_binding pIC50
1 | C=CC(=O)N1CCC[C@@H](NC(=O)c2sc3nccc4c3c2NC(=O)N4c2ccc(C)c(C(F)(F)F)c2)C1 [Example 607, (R)—N-(1-Acryloylpiperidin-3-yl)-5-(4-methyl-3-(trifluoromethyl)phenyl)-4-oxo-4,5-dihydro-3H-1-thia-3,5,8-triazaacenaphthylene-2-carboxamide] | 6.2
2 | CC(C)(C)OC(=O)N1CCC[C@@H](NC(=O)c2sc3nccc4c3c2NC(=O)N4c2ccc(OC3CCC3)nc2)C1 [Example 654, (R)-tert-Butyl 3-(5-(6-cyclobutoxypyridin-3-yl)-4-oxo-4,5-dihydro-3H-1-thia-3,5,8-triazaacenaphthylene-2-carboxamido)piperidine-1-carboxylate] | <5
3 | C=CC(=O)N1CCC[C@@H](NC(=O)c2sc3nccc4c3c2NC(=O)N4c2ccc(Oc3cccnc3C)cc2C)C1 [Example 773, (R)—N-(1-Acryloylpiperidin-3-yl)-5-(2-methyl-4-((2-methylpyridin-3-yl)oxy)phenyl)-4-oxo-4,5-dihydro-3H-1-thia-3,5,8-triazaacenaphthylene-2-carboxamide] | 7.4
4 | COc1ccccc1Oc1ccc(N2C(=O)Nc3c(C(=O)NC4CCCNC4)sc4nccc2c34)c(C)c1 (stereo not shown) [Example 870, 5-(4-(2-Methoxyphenoxy)-2-methylphenyl)-4-oxo-N-(piperidin-3-yl)-4,5-dihydro-3H-1-thia-3,5,8-triazaacenaphthylene-2-carboxamide] | 7.3
5 | C=CC(=O)N1CCC[C@@H](NC(=O)c2sc3nccc4c3c2NC(=O)N4c2ccc(Oc3cccc(C)n3)cc2C)C1 [Example 772, (R)—N-(1-Acryloylpiperidin-3-yl)-5-(2-methyl-4-((6-methylpyridin-2-yl)oxy)phenyl)-4-oxo-4,5-dihydro-3H-1-thia-3,5,8-triazaacenaphthylene-2-carboxamide] | 7.7
6 | Cc1cc(Oc2ccccc2)ccc1N1C(=O)Nc2c(C(=O)N[C@@H]3CCCN(C(=O)/C=C/CN4CCCC4)C3)sc3nccc1c23 (single isomer, unassigned) [Example 845, (R,E)-5-(*S)-(2-Methyl-4-phenoxyphenyl)-4-oxo-N-(1-(4-(pyrrolidin-1-yl)but-2-enoyl)piperidin-3-yl)-4,5-dihydro-3H-1-thia-3,5,8-triazaacenaphthylene-2-carboxamide] | 7.6

Same assay, conditions: pIC50 = negative log of the IC50 in molar; 60 minutes incubation, 50 nM Tracer 236

Row | SMILES | BTK_I_binding pIC50
7 | C=CC(=O)N1C[C@H](O)C[C@@H](NC(=O)c2sc3nccc4c3c2NC(=O)N4c2ccc(Oc3ccccc3)cc2C)C1 (single isomer, unassigned) [Example 2, N-((3R,5S)-1-Acryloyl-5-hydroxypiperidin-3-yl)-5-(*S)-(2-methyl-4-phenoxyphenyl)-4-oxo-4,5-dihydro-3H-1-thia-3,5,8-triazaacenaphthylene-2-carboxamide] | 8.2
8 | C/C=C(\F)C(=O)N1CCC[C@@H](NC(=O)c2sc3nccc4c3c2NC(=O)N4c2ccc(Oc3ccccc3)cc2C)C1 [Example 261, (R,Z)—N-(1-(2-Fluorobut-2-enol)piperidin-3-yl)-5-(2-methyl-4-phenoxyphenyl)-4-oxo-4,5-dihydro-3H-1-thia-3,5,8-triazaacenaphthylene-2-carboxamide] | 6.5
9 | CN1CCC[C@@H](NC(=O)c2sc3nccc4c3c2NC(=O)N4c2ccc(Oc3ccccc3)cc2F)C1 [Example 135, (R)-5-(2-Fluoro-4-phenoxyphenyl)-N-(1-methylpiperidin-3-yl)-4-oxo-4,5-dihydro-3H-1-thia-3,5,8-triazaacenaphthylene-2-carboxamide] | 7.2
10 | CCN1CC(NC(=O)c2sc3nccc4c3c2NC(=O)N4c2ccc(Oc3ccccc3)cc2C)C1 [Example 251, N-(1-Ethylazetidin-3-yl)-5-(2-methyl-4-phenoxyphenyl)-4-oxo-4,5-dihydro-3H-1-thia-3,5,8-triazaacenaphthylene-2-carboxamide] | 6.4
11 | Cc1cc(Oc2ccccc2)ccc1N1C(=O)Nc2c(C(=O)NC3CCCN(C)CC3)sc3nccc1c23 (stereo not shown) [Example 187, 5-(2-Methyl-4-phenoxyphenyl)-N-(1-methylazepan-4-yl)-4-oxo-4,5-dihydro-3H-1-thia-3,5,8-triazaacenaphthylene-2-carboxamide] | 6.7
12 | Cc1cc(OC2CCOCC2)ccc1N1C(=O)Nc2c(C(=O)N[C@@H]3CCCN(C(=O)/C(C#N)=C/C4CC4)C3)sc3nccc1c23 [Example 233, (R,E)-N-(1-(2-Cyano-3-cyclopropylacryloyl)piperidin-3-yl)-5-(2-methyl-4-((tetrahydro-2H-pyran-4-yl)oxy)phenyl)-4-oxo-4,5-dihydro-3H-1-thia-3,5,8-triazaacenaphthylene-2-carboxamide] | 7.2
13 | Cc1c(N2C(=O)Nc3c(C(=O)N[C@H]4CCCOC4)sc4nccc2c34)ccc(Oc2ccccc2)c1F [Example 61, (S)-5-(3-Fluoro-2-methyl-4-phenoxyphenyl)-4-oxo-N-(tetrahydro-2H-pyran-3-yl)-4,5-dihydro-3H-1-thia-3,5,8-triazaacenaphthylene-2-carboxamide] | 7.3

Same assay, conditions: unphosphorylated-BTK kinase domain, 50 nM Tracer 236, 60 minutes; pIC50 = negative log of the IC50 in molar

Row | SMILES | BTK_I_binding pIC50
14 | Cc1ccccc1N1C(=O)Nc2c(C(=O)N[C@@H]3CCCN(C)C3)sc3nccc1c23 [Example 352, (R)—N-(1-Methylpiperidin-3-yl)-4-oxo-5-(o-tolyl)-4,5-dihydro-3H-1-thia-3,5,8-triazaacenaphthylene-2-carboxamide] | <5
15 | Cc1ccc(N2C(=O)Nc3c(C(=O)N[C@@H]4CCCNC4)sc4nccc2c34)cc1Cl [Example 460, (R)-5-(3-Chloro-4-methylphenyl)-4-oxo-N-(piperidin-3-yl)-4,5-dihydro-3H-1-thia-3,5,8-triazaacenaphthylene-2-carboxamide] | 5.3
16 | Cc1cc(Oc2cccnc2)ccc1N1C(=O)Nc2c(C(=O)N[C@@H]3CCCN(C)C3)sc3nccc1c23 [Example 293, (R)-5-(2-Methyl-4-(pyridin-3-yloxy)phenyl)-N-(1-methylpiperidin-3-yl)-4-oxo-4,5-dihydro-3H-1-thia-3,5,8-triazaacenaphthylene-2-carboxamide] | 6.1
17 | CC(C)=C(Cl)C(=O)N1CCC[C@@H](NC(=O)c2sc3nccc4c3c2NC(=O)N4c2ccc(Oc3ccccc3)cc2C)C1 (single isomer, unassigned) [Example 439, (R)—N-(1-(2-Chloro-3-methylbut-2-enoyl)piperidin-3-yl)-5-(*R)-(2-methyl-4-phenoxyphenyl)-4-oxo-4,5-dihydro-3H-1-thia-3,5,8-triazaacenaphthylene-2-carboxamide] | 5.7
18 | C=CC(=O)N1CCC[C@@H](NC(=O)c2sc3nccc4c3c2NC(=O)N4Cc2ccc(Oc3ccccc3)cc2)C1 [Example 408, (R)—N-(1-Acryloylpiperidin-3-yl)-4-oxo-5-(4-phenoxybenzyl)-4,5-dihydro-3H-1-thia-3,5,8-triazaacenaphthylene-2-carboxamide] | 5.1

Same assay, conditions: unphosphorylated-BTK kinase domain, 60 minutes incubation, 50 nM Tracer 236; pIC50 = negative log of the IC50 in molar

Row | SMILES | BTK_I_binding pIC50
19 | CC(=O)N1CCC[C@@H](NC(=O)c2sc3nccc4c3c2NC(=O)N4c2ccc(OC(C)C)cc2C)C1 [Example 936, (R)—N-(1-Acetylpiperidin-3-yl)-5-(4-isopropoxy-2-methylphenyl)-4-oxo-4,5-dihydro-3H-1-thia-3,5,8-triazaacenaphthylene-2-carboxamide] | <6
